Laboratory results: ChEMBL document CHEMBL5143660, “Investigation on the chemical space of the substituted triazole thio-benzoxazepinone RIPK1 inhibitors” (Eur J Med Chem, 2022)

Columns and labels:
HT-29 = experiment: Anti-necroptic activity in human HT-29 cells assessed as inhibition of TSZ induced necroptosis measured after 16 to 24 hrs by celltiter-glo luminescent cell viability assay; assay type: functional, cell-based
[1] = Cytotoxicity against human HT-29 cells assessed as reduction in cell viability; assay type: toxicity, cell-based
[2] = biological target: T1, Receptor-interacting serine/threonine-protein kinase 1 (Homo sapiens, UniProt Q13546); experiment: Binding affinity to wild-type human partial length RIPK1 (M1 to K305 residues) expressed in bacterial expression system incubated for 1 hr under shaking condition by Kinomescan method
T1 sequence (Q13546 whole entry): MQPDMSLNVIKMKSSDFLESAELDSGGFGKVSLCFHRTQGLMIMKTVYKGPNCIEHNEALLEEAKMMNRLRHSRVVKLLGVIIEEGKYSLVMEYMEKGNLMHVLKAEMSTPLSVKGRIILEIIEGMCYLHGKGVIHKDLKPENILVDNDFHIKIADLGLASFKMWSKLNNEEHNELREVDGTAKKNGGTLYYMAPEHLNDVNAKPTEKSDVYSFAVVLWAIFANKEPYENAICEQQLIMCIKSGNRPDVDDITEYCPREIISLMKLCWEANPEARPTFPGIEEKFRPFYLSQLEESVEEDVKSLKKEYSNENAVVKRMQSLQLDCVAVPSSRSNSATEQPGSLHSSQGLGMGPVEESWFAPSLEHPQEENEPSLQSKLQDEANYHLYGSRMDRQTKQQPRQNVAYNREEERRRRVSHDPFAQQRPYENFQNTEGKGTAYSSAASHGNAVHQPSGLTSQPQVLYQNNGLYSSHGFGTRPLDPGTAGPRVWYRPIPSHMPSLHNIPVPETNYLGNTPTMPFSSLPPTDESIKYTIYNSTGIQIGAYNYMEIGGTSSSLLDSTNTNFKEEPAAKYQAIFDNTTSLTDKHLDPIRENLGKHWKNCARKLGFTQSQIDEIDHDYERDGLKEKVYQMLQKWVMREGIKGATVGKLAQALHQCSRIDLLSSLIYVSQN

Structure (SMILES) | EC50 (HT-29) [µM] | CC50 [1] [µM] | Kd [2] [µM]
CN1C(=S)[C@@H](NC(=O)c2nc(Cc3ccccc3)n(CC3COC3)n2)COc2ccccc21 | 2.83 | > 100 | 
CCCn1nc(C(=O)N[C@H]2COc3ccccc3N(C)C2=S)nc1Cc1ccccc1 | 0.288 | > 100 | 
CN1C(=S)[C@@H](NC(=O)c2nc(Cc3ccccc3)n(CCC(F)(F)F)n2)COc2ccccc21 | 1.55 | > 100 | 
CC(C)n1nc(C(=O)N[C@H]2COc3ccccc3N(C)C2=S)nc1Cc1ccccc1 | 0.36 | > 100 | 
CN1C(=S)[C@@H](NC(=O)c2nc(Cc3ccccc3)n(Cc3ccccc3)n2)COc2ccccc21 | 0.414 | > 100 | 
Cc1cnc(-n2nc(C(=O)N[C@H]3COc4ccccc4N(C)C3=S)nc2Cc2ccccc2)nc1 | 1.95 | > 100 | 
CN1C(=S)[C@@H](NC(=O)c2nc(Cc3ccccc3)n(C3CCNCC3)n2)COc2ccccc21 | 1 | > 100 | 
CN1C(=S)[C@@H](NC(=O)c2nc(Cc3ccccc3)n(C3CCC3)n2)COc2ccccc21 | 0.181 | > 100 | 0.301
CN1C(=S)[C@@H](NC(=O)c2nc(Cc3ccccc3)n(C3CCCCC3)n2)COc2ccccc21 | 4 | > 100 | 
CN1C(=S)[C@@H](NC(=O)c2nc(Cc3ccccc3)n(C3CCN(C(=O)OC(C)(C)C)CC3)n2)COc2ccccc21 | > 10 | > 100 | 
CN1C(=S)[C@@H](NC(=O)c2nc(Cc3ccccc3)n(CCCC#N)n2)COc2ccccc21 | 2.4 | > 100 | 
CN1C(=S)[C@@H](NC(=O)c2n[nH]c(Cc3ccccc3)n2)COc2ccccc21 |  | > 50 | 0.031
CN1C(=S)[C@@H](NC(=O)c2nc(Cc3ccccc3)n(CCCO)n2)COc2ccccc21 | 0.208 | > 100 | 
CN1C(=O)[C@@H](NC(=O)c2nnc(Cc3ccccc3)[nH]2)COc2ccccc21 [GSK2982772] |  | > 50 | 
CN1C(=S)[C@@H](NC(=O)c2nc(Cc3ccccc3)n(CC(F)F)n2)COc2ccccc21 | 0.0089 | > 100 | 
CN1C(=S)[C@@H](NC(=O)c2nc(Cc3ccccc3)n(CC3CCOCC3)n2)COc2ccccc21 | 6.31 | > 100 | 
CCCCn1nc(C(=O)N[C@H]2COc3ccccc3N(C)C2=S)nc1Cc1ccccc1 | 0.51 | > 100 | 
CCCCCn1nc(C(=O)N[C@H]2COc3ccccc3N(C)C2=S)nc1Cc1ccccc1 | 0.805 | > 100 | 

Structure (SMILES) | EC50 (HT-29) [µM] | CC50 [1] [µM] | Kd [2] [µM]
CN1C(=S)[C@@H](NC(=O)c2nc(Cc3ccccc3)n(CC(F)(F)F)n2)COc2ccccc21 | 0.036 | > 100 | 0.267
CN1C(=S)[C@@H](NC(=O)c2nc(Cc3ccccc3)n(CCCC(F)(F)F)n2)COc2ccccc21 | 2.38 | > 100 | 
CN1C(=S)[C@@H](NC(=O)c2nc(Cc3ccccc3)n(C3CCCCCC3)n2)COc2ccccc21 | 5.53 | > 100 | 
CN1C(=S)[C@@H](NC(=O)c2nc(Cc3ccccc3)n(C3CCOC3)n2)COc2ccccc21 (stereo not given in full) | 1.58 | > 100 | 0.272
COCCn1nc(C(=O)N[C@H]2COc3ccccc3N(C)C2=S)nc1Cc1ccccc1 | 0.566 | > 100 | 
CN1C(=S)[C@@H](NC(=O)c2nc(Cc3ccccc3)n(CCCF)n2)COc2ccccc21 | 4.76 | > 100 | 
CN1C(=S)[C@@H](NC(=O)c2nc(Cc3ccccc3)n(CC3CCOC3)n2)COc2ccccc21 (stereo not given in full) | 4.42 | > 100 | 
CN1C(=S)[C@@H](NC(=O)c2nc(Cc3ccccc3)n(C3CCN(C(=O)OC(C)(C)C)C3)n2)COc2ccccc21 (stereo not given in full) | > 10 | > 100 | 
CN1C(=S)[C@@H](NC(=O)c2nc(Cc3ccccc3)n(C3CCCC3)n2)COc2ccccc21 | 3.53 | > 100 | 
CC(C)Cn1nc(C(=O)N[C@H]2COc3ccccc3N(C)C2=S)nc1Cc1ccccc1 | 1.23 | > 100 | 
CN1C(=S)[C@@H](NC(=O)c2nc(Cc3ccccc3)n(CCCCCC#N)n2)COc2ccccc21 | 3.83 | > 100 | 
CN1C(=S)[C@@H](NC(=O)c2nc(Cc3ccccc3)n(C3CCOCC3)n2)COc2ccccc21 | 2.26 | > 100 | 
CN1C(=S)[C@@H](NC(=O)c2nc(Cc3ccccc3)n(C3COC3)n2)COc2ccccc21 | 0.916 | > 100 | 
CN1C(=S)[C@@H](NC(=O)c2nc(Cc3ccccc3)n(CCCCC#N)n2)COc2ccccc21 | 2.68 | > 100 | 
CCn1nc(C(=O)N[C@H]2COc3ccccc3N(C)C2=S)nc1Cc1ccccc1 | 0.017 | > 100 | 0.079
CN1C(=S)[C@@H](NC(=O)c2nc(Cc3ccccc3)n(C3CCNC3)n2)COc2ccccc21 (stereo not given in full) | 1.07 | > 100 | 
CC(C)CCn1nc(C(=O)N[C@H]2COc3ccccc3N(C)C2=S)nc1Cc1ccccc1 | 3.64 | > 100 | 
CN1C(=S)[C@@H](NC(=O)c2nc(Cc3ccccc3)n(-c3ncccn3)n2)COc2ccccc21 | 3.97 | > 100 | 
